Laboratory results: the supplement of paper PMC11208160

Test: recombinant UMI read abundance after kanamycin selection (control-corrected) (log10(CPM+1)); higher = more efficient recombination; extreme values may be limits of the assay; sequences stand for … in AGTGCAGAGAAAATCGGCCAGTTTTCTCTGCCTGCAGTCCGCATGCCGTGGGACCCCTTGGGTTCTAACCTGTTGCCTAGATTTATGCAGCGGACTGCCTTTCTCCCAAAGTGATAAACCGG…AGGTTGGTTTCACT; site = the 11-nt donor
In short: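 Pooled Escherichia coli screen of donor and donor-binding-loop pairs for the IS621 bridge recombinase. Each pair sits with a 12-nt UMI on a plasmid carrying a promoterless kanamycin gene. The library was co-electroporated with a target plasmid encoding a fixed target and T7-inducible recombinase, then plated with IPTG (0.07 mM) plus kanamycin, or unselected, each in two replicates. Recombinant UMIs were PCR-amplified across the donor–target junction and sequenced. Counts became CPM, averaged over replicates, scaled by control-derived factors and reported as log10(CPM+1).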

Row | Sequence | recombinant UMI read abundance (log10)
1 | GTCAGAACATGGACCGGTTTTCCCGGTAATCCGTATTTGAT (site GTCAGAACTAT) | 2.16
2 | GTCAGACCATGGACCGGTTTTCCCGGTAATCCGTATTTGGT (site GTCAGACCTAC) | 0
3 | GTCCAAGCATGGACCGGTTTTCCCGGTAATCCGTATTTGAG (site ATCCAAGCTCT) | 0.677
4 | GTCCAAGCATGGACCGGTTTTCCCGGTAATCCGTATTTGAG (site CTCCAAGCTCT) | 0
5 | GTCCAAGCATGGACCGGTTTTCCCGGTAATCCGTATTTGAG (site GTCCAAGCTCT) | 0.618
6 | GTCCAAGCATGGACCGGTTTTCCCGGTAATCCGTATTTGAG (site TTCCAAGCTCT) | 0.088
7 | GTCCACCCATGGACCGGTTTTCCCGGTAATCCGTATTTGTT (site GACCACCCTAA) | 0.0143
8 | GTCCACCCATGGACCGGTTTTCCCGGTAATCCGTATTTGTT (site GCCCACCCTAA) | 0.0129
9 | GTCCACCCATGGACCGGTTTTCCCGGTAATCCGTATTTGTT (site GGCCACCCTAA) | 0.0212
10 | GTCCACCCATGGACCGGTTTTCCCGGTAATCCGTATTTGTT (site GTCCACCCTAA) | 0.0175
11 | GTCCATTCATGGACCGGTTTTCCCGGTAATCCGTATTTGCT (site GTCCATTCTAG) | 0.671
12 | GTCCCCGCATGGACCGGTTTTCCCGGTAATCCGTATTTGAG (site GTCCCCGCTCT) | 0.468
13 | GTCCCGTCATGGACCGGTTTTCCCGGTAATCCGTATTTGGT (site GTCCCGTCTAC) | 0.849
14 | GTCGACCCATGGACCGGTTTTCCCGGTAATCCGTATTTGAG (site GTCGACCCTCT) | 0.0157
15 | GTCGGTCCATGGACCGGTTTTCCCGGTAATCCGTATTTGTA (site GTCGGTCCTTA) | 0.0236
16 | GTCGTTCCATGGACCGGTTTTCCCGGTAATCCGTATTTGGT (site GTAGTTCCTAC) | 0

Row | Sequence | recombinant UMI read abundance (log10)
17 | GTCGTTCCATGGACCGGTTTTCCCGGTAATCCGTATTTGGT (site GTCGTTCCTAC) | 0.0042
18 | GTCGTTCCATGGACCGGTTTTCCCGGTAATCCGTATTTGGT (site GTGGTTCCTAC) | 0.0048
19 | GTCGTTCCATGGACCGGTTTTCCCGGTAATCCGTATTTGGT (site GTTGTTCCTAC) | 0.00325
20 | GTCTGACCATGGACCGGTTTTCCCGGTAATCCGTATTTGAG (site CAGGCTGCTTA) | 0.0145
21 | GTCTGCCCATGGACCGGTTTTCCCGGTAATCCGTATTTGAG (site GTCTGCCCTCT) | 0.0162
22 | GTCTTACCATGGACCGGTTTTCCCGGTAATCCGTATTTGCC (site GTCTTACCTGG) | 0
23 | GTCTTGACATGGACCGGTTTTCCCGGTAATCCGTATTTGTG (site GTCTTGACTCA) | 0.296
24 | GTCTTGTCATGGACCGGTTTTCCCGGTAATCCGTATTTGTC (site GTCTTGTCTGA) | 1.66
25 | GTGACGCCATGGACCGGTTTTCCCGGTAATCCGTATTTGAA (site GTGACGCCTTT) | 0.0255
26 | GTGAGCGCATGGACCGGTTTTCCCGGTAATCCGTATTTGAG (site GTGAGCGCTCT) | 1.68
27 | GTGCAGGCATGGACCGGTTTTCCCGGTAATCCGTATTTGGT (site GTGCAAGCTAC) | 1.77
28 | GTGCAGGCATGGACCGGTTTTCCCGGTAATCCGTATTTGGT (site GTGCACGCTAC) | 0.00349
29 | GTGCAGGCATGGACCGGTTTTCCCGGTAATCCGTATTTGGT (site GTGCAGGCTAC) | 0.659
30 | GTGCAGGCATGGACCGGTTTTCCCGGTAATCCGTATTTGGT (site GTGCATGCTAC) | 0.279
31 | GTGCAGGCATGGACCGGTTTTCCCGGTAATCCGTATTTGTG (site GTGAAGGCTCA) | 1.5
32 | GTGCAGGCATGGACCGGTTTTCCCGGTAATCCGTATTTGTG (site GTGCAGGCTCA) | 1.17
